Experimental data as given in patent US6372884B1, “Biologically active compounds and methods of constructing and using the same” (priority 1987, dated 2002).
Ends that are not written are not given here.

Tests used:
[1] = system: reovirus type 3; design: species or system mice; details: mouse, in vivo
[2] = system: reovirus type 1; design: species or system Balb/c mice; details: mouse, in vivo
[3] = system: type 1 virus; design: species or system Balb/c mice; details: mouse, in vivo
[4] = system: reovirus type 1; design: species or system Balb/c mice; details: mouse, in vivo; remark: listed apart in the source
[5] = system: type 3 virus; design: species or system Balb/c mice; details: mouse, in vivo
[6] = system: reovirus type 3; design: species or system Balb/c mice; details: mouse, in vivo
[7] = system: reovirus type 3; design: species or system Balb/c mice; details: mouse, in vivo; remark: listed apart in the source
[8] = system: neutralizing monoclonal antibody 9BG5; assay type: binding, mouse
[9] = system: reovirus type 3; assay: Delayed type hypersensitivity (footpad swelling), reovirus type 3; assay type: in vivo, mice
Protocol: (§1) FIG. 17 illustrates data for mice immunized with the reovirus types noted by injection of 10^7 PFU subcutaneously, or with the peptides noted at a dose of 100 μg split into two injections subcutaneously; one week later, mice were challenged with virus or peptides in the footpads; footpad swelling was determined as indicated in the following description 48 hours after challenge; the mean +SEM for groups of mice is shown.
(§2) For the study of DTH response, groups of mice were inoculated with either synthetic peptide or live reovirus type 3 subcutaneously (s.c.) in two separate sites on the dorsal flanks of the animal (over each hind limb); 50 μg of a synthetic peptide or 10^7 viral particles/0.2 ml were given in separate injections of 0.1 ml vol. Six days later, animals were challenged in the left footpad with 3×10^7 viral particles suspended in saline containing 2% gelatin (30 μl). Footpad swelling was recorded 24 hr later in a blind fashion (Greene, M. I. and Weiner, H. L., J. Immunol. 125:283-287, 1980). Four animals per group were studied, and the magnitude of the response was determined by comparing the challenged left footpad to the untreated right footpad.

[10] = system: reovirus type 3 receptor on L cells; assay: Inhibition of binding of radioiodinated reovirus particles to L cells; design: species or system murine
[11] = system: reovirus type 3 receptor (Reo3R); assay: Flow cytometry: inhibition of 87.92.6 binding to cells; design: species or system murine; details: FIG. 29
Protocol: The ability of peptides to inhibit antibody binding to cells was determined by preincubation of the cells with varying amounts of inhibitor (in 100 μl dH2O) for between 30 minutes and 1 hour at 23° C. Cells (either L cells or R1.1 cells) were washed in 1% BSA/PBS/0.1% NaN3, and resuspended at 10^7/ml. 100 μl of cells were then added in 1% BSA/PBS/0.1% NaN3, and the incubation continued for 20-30 minutes. Antibodies (5 or 10 μl were added for an additional 20 minutes at 23° C. Ice cold 1% BSA/PBS/0.1% NaN3, was added, the cells centrifuged and washed prior to counterstaining with a 1:100 dilution of FITC goat anti-mouse Ig (Fisher Scientific) in 1% BSA/PBS/0.1% NaN3. The cells were washed twice and fluorescence intensity determined. Inhibition of binding was calculated as noted above with mean channel number utilized in place of CPM.
To assess the affinity of the cyclic peptides for the reovirus type 3 receptor (Reo3R), they were utilized in a series of assays to inhibit binding of 87.92.6 or control antibodies to specific receptors. […] The inhibition by VLC9C16 peptide was specific as binding of isotype matched monoclonal H013.4 to Thy2 molecules was not inhibited by VLC9C16 peptide (FIG. 30). Thus, VLC9C16 peptide is a specific Reo3R ligand with enhanced affinity compared with its linear analog.

[12] = system: C3H female mouse spleenocytes; assay: Lymphocyte proliferation with or without concanavalin A; assay type: cell-based; details: absence of con A, FIG. 7A
[13] = system: L cells; assay: Inhibition of L cell DNA synthesis (tritiated thymidine); assay type: cell-based, murine; details: tritiated thymidine incorporation after 24 hours, FIGS. 3 and 4
Protocol: Reovirus type 3 inhibits host cell DNA synthesis upon receptor perturbation. This effect is not due to infection of cells as replication defective reovirus type 3 particles retain this property. L cells were cultured at 5 ×10^4 cells per well of 96 well microtiter plates in 100 μl media for 24 hours. Reovirus type 3 particles (A) were added and incubated for an additional 24 hours prior to the addition of tritiated thymidine. Purified monoclonal antibodies 87.92.6 or HO 22.1 (B) were added for 1 hour at 37° C., then the culture media removed and replaced with 100 μl fresh media for 24 hours, prior to the addition of tritiated thymidine. The cells were incubated for an additional 4-6 hours and counts per minute (CPM) incorporated were determined.
87.92.6 is effective only as a native antibody while monomeric Fab fragments have no effect. VL peptide was synthesized with an additional amino terminal cysteine residue (VLSH) to form a dimeric peptide. VLSH peptide was dimerized by stirring a 5 mg/ml solution in 0.1 M ammonium bicarbonate overnight at 23° C. exposed to air. The peptides were then lyophilized. Dimerization was confirmed by Ellman determination according to the procedure of Ellman, G. L. Arch. […] Tritiated thymidine was added for an additional 4-6 hours, and counts per minute (CPM) incorporated was determined. Per cent inhibition was determined by the formula: [formula]

[14] = system: reovirus type 3 receptor on R1.1 cells; assay: Down-modulation of reovirus type 3 receptor, flow cytometry with 87.92.6; assay type: cell-based, murine; details: peptides 100 μg/ml, three experiments, FIG. 6
[15] = system: reovirus type 1; assay: Delayed type hypersensitivity (footpad swelling), reovirus type 1; assay type: in vivo, mice; details: footpad challenge with virus
Protocol: as §1, §2

[16] = system: monoclonal antibody 9BG5; assay: Inhibition of binding of radioiodinated reovirus type 3 particles to 9BG5 coated wells; design: species or system mouse; details: FIGS. 10A-C
Protocol: The wells of microtiter plates were coated with neutralizing anti-reovirus type 3 monoclonal antibody 9BG5 or irrelevant class matched monoclonal A11 by adsorption to staphylococcal protein A (SPA). SPA (sigma Chemical Co., St. Louis, Mo.) was diluted to 5 μg/ml in 0.1 M NaHCO3 pH 9.6 and 50 μl/well dispensed into 96 well polystyrene plates. Following overnight incubation at 4° C., the. wells were decanted, washed three times in PBS, and blocked with 2% BSA in PBS with 0.1% NaN3 for one hour at 37° C. The wells were decanted, washed three times in PBS and monoclonal antibody 9BG5 diluted to 10 μg/ml in 1% BSA in PBS with 0.1% NaN3 was added (50 μl/well) for 1-3 hours at 37° C. […] The wells were decanted and washed three times in PBS. Competitors were added at the concentrations noted (100 μl/well) diluted in 0.5% BSA in 5 mM phosphate buffer with 0.45% NaCl and preincubated for 45-60 minutes at 23° C. […] Following preincubation with inhibitors, radioiodinated reovirus type 3 particles diluted in 1% BSA in PBS with 0.1% NaN3 were added (5-10×10^5 CPM per well), and the incubation continued for 45 minutes. Wells were decanted, washed 8-10 times with PBS and the CPM bound determined. […] As shown in FIGS. 10A-C, 6,700 CPM were bound to 9BG5 coated wells and 500 CPM were bound to control (A11 ) coated wells in the absence of inhibitors. The mean ± standard deviation of binding inhibition (Determined as noted for FIG. 9) of replicate wells is shown. Control peptide B was used in this study. The competitor peptides in FIGS. 15A and 15B are those described herein. Competitor peptide VLA6 is identical to VL except that alanine is substituted for asparagine at position 6.

[17] = system: […]-infected H9 cells; assay: Flow cytometry: mouse antisera binding to infected H9 cells; assay type: in vivo; details: subcutaneous immunization of mice
[18] = system: recombinant HIV-1 gp120; details: rabbits immunized with peptide conjugated to KLH, FIG. 21
Protocol: Antisera was obtained and tested for binding to recombinant HIV-1 gp120 peptide-coated radioimmunoassay plates (using 1 μg/ml gp120 at 50 μl/well, in 0.1 M NaHCO3 and incubating overnight at 4° C.). The indicator antibody was ^125I-labelled anti-rabbit immunoglobulin antibody.

[19] = system: HIV; assay: Infectivity assays with rabbit antisera; details: in vivo
[20] = system: recombinant glycosylated gp120; details: radiolabelled immunoprecipitations
Protocol: The immunogenicity of B138 was determined by subcutaneous immunization of mice and rabbits.

[21] = system: HIV; assay: Blocking of virus binding by gp120 421-438 peptide
Excerpt: A molecular model for the region 413-455 (FIG. 19) may be constructed based upon these structural concepts, utilizing a light-chain antibody structure known as REI (Bernstein et al., 1977, Mol. Biol. 112:535-542) as a template for the first and third hypervariable region, in which the cysteines in gp120 at positions 418 and 445 form a disulfide bridge. The cysteines are positionally conserved with respect to each other as in the light chain. The model may be energy optimized using molecular mechanics and dynamics. […] The in vitro biological activity of the 421-438 peptide fragment in modulating CD4-depending cellular function and this fragment's ability to induce an anti-HIV response is as described below.

Substance: Gln Ser Met --- Trp Ile Gly Ile Val Ser Tyr Ser Gly Ser Gly Leu Asn (WIGIVSYSGSGLN; N-terminal Gln-Ser-Met; printed: Trp Ile Gly Ile Val Ser Tyr Ser Gly Ser Gly Leu Asn) [reo peptide, amino acids 317-332 in the type 3 viral hemagglutinin]
- proliferative response to reovirus type 3 in spleen cells from immunized mice [1]: type specific proliferative response
- neutralization of L-cell lysis by reovirus type 1 by immune serum [2]: not type 1
- inhibition of plaque formation by type 1 virus by immune serum [3]: not type 1
- binding of immune serum to type 1 virus coated plates [4]: significant binding
- inhibition of plaque formation by type 3 virus by immune serum [5]: specific inhibition of plaque formation
- binding of immune serum to type 3 virus coated plates [6]: significant binding
- neutralization of L-cell lysis by reovirus type 3 by immune serum [7]: specifically neutralized
- specific binding of 9BG5 to peptide coated wells [8]: Strong reproducible binding

Substance: KPGKTNKLLIYSGSTLQ [VL peptide, amino acids 39-55 of the light chain variable region of 87.92.6]
- DTH response to reovirus type 3 after immunization with peptide ([9]; footpad challenge with virus, FIGS. 15A and 15B): significant DTH responses
- DTH to the peptide in animals primed with type 3 virus ([9]; priming with type 3 virus, challenge with peptide): significant DTH
- inhibition of binding of variant K to L cells ([10]; FIGS. 11A and 11B): inhibits binding
- inhibition of binding of reovirus type 3 to L cells ([10]; FIGS. 11A-D): inhibits binding
- inhibition of binding of reovirus type 1 to cells ([10]; reovirus type 1 utilizes a distinct receptor): not inhibited
- inhibition of binding of 87.92.6 to murine L cells ([11]; L cells): less effective competitor
- inhibition of binding of 87.92.6 to R1.1 thymoma cells ([11]; R1.1 cells): ineffectual
- inhibition of spontaneous lymphocyte proliferation [12]: no significant effect
- inhibition of DNA synthesis by L cells [13]: no effect
- reovirus type 3 receptor expression (decrease in mean channel fluorescence) [14]: no effect
- specific binding of 9BG5 to peptide coated wells [8]: small amount of binding
- DTH response to reovirus type 1 after immunization with peptide [15]: did not demonstrate significant DTH responses
- inhibition of binding of reovirus type 3 particles to 9BG5 [16]: inhibits binding

Substance: KQFINMWQEVGKAMYAPP [B138]
- binding of mouse antisera to infected H9 cells [17]: preferentially bind
- level of antiserum antibody bound to gp120 coated plates [18]: lower levels of bound antibody
- elicitation of neutralizing antibodies (infectivity assays with rabbit sera) [19]: could elicit neutralizing antibodies
- immunoprecipitation of recombinant glycosylated gp120 by rabbit antisera [20]: weakly
- blocking of virus binding [21]: shown to block virus binding
